Laboratory results reported in paper PMC9858427, “Design, synthesis and biological evaluation of 2-((4-sulfamoylphenyl)amino)-pyrrolo[2,3-d]pyrimidine derivatives as CDK inhibitors” (Journal of Enzyme Inhibition and Medicinal Chemistry, 2023).
Read-outs that look alike come from different tables or passages of the source.

Legend:
[1] = tested on: MIA PaCa-2 cells; assay: MTT proliferation assay in MIA PaCa-2 cells; assay type: cell-based, human; details: 72 h drug exposure
Description: (§1) The human pancreatic carcinoma MIA PaCa-2 was purchased from China Centre for Type Culture Collection, AsPC-1 and BxPC-3 cell Lines were purchased from Cell Centre of the Institute of Basic Medical Sciences, Chinese Academy of Medical Sciences and Peking Union Medical College. PANC-1 was kindly provided by Nankai Hospital (Tianjin, China). These cancer cell lines were cultured according to the manufacturer’s instruction.
(§2) Then 3-fold diluted concentrations of tested compound were added respectively which was dissolved by DMSO in the ratio of 1:1000. After indicated incubation period, MTT was added to each well and incubated for 4 h at 37 °C. Then, the supernatant was discarded gently, and the precipitate was dissolved in 100 µL of DMSO in each well. The absorbance (A) at 570 nm was detected with a microplate reader (Multiskan MK3; Thermo Fisher Scientific, MA, USA). Vehicle-treated cells were served as the control for the calculation of relative cell viability (%) of treated group at single concentration. IC50 value was calculated directly from the inhibition curve of serial dilution of test compound and was expressed as mean ± SD using the SPSS statistical software (SPSS17.0 Inc., Chicago, IL, USA).

[2] = target: CDK9/cyclinT1 (Homo sapiens, UniProt P50750); assay: CDK9/cyclinT1 Lance Ultra Assay, single concentration screen; assay type: biochemical; details: ATP concentration at Km; for inhibition at 0.05 µM: 50 nM, read-out: CDK9 inhibitory rate (%) @ 50nM; for CDK9 inhibitory rate (%) @ 50nM: 0.05 µM
Chain of CDK9/cyclinT1 (P50750 whole entry): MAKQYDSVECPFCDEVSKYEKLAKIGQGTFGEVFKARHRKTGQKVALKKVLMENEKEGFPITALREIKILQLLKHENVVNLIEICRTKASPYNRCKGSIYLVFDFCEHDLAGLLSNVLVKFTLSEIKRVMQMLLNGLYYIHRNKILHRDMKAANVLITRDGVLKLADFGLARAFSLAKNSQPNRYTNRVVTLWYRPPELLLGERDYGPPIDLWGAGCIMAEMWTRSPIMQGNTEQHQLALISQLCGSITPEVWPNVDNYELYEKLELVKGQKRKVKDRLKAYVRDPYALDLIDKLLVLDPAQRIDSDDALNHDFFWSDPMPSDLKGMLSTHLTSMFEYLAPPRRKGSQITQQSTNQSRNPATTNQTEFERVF
Chain of CDK9/cyclinT1 (O60563 whole entry partner): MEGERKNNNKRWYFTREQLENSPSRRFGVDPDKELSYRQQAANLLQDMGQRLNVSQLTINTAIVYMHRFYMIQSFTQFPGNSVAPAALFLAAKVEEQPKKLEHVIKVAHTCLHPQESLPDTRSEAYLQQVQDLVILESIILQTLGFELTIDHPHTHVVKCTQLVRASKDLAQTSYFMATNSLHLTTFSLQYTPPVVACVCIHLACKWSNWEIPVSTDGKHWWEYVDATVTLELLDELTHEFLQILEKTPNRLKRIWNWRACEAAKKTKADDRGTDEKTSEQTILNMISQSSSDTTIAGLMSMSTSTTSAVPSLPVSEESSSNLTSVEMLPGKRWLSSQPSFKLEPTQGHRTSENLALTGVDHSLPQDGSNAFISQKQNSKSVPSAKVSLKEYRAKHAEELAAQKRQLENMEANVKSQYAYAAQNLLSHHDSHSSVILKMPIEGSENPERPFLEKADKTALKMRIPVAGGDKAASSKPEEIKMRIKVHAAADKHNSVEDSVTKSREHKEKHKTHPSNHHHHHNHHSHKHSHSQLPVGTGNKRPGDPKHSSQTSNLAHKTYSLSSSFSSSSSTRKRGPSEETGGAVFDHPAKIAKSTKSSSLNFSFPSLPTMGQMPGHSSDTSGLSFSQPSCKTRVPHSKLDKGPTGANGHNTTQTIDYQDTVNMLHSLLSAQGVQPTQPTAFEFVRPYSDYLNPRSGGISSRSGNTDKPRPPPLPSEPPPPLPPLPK
Description: (§3) CDK kinase activity (IC50 values and inhibitory rate at single concentration) was measured using the kinase profiling services (Shanghai ChemPartner Co., Ltd). Compounds were sent to ChemPartner as a solution in DMSO at concentration of 10 mM.

[3] = Solubility / precipitation observations; assay type: physicochemical
[4] = target: CDK4 (Homo sapiens, UniProt P11802); assay: CDK4 kinase IC50, Mobility shift assay; assay type: biochemical
Chain of CDK4 (P11802 whole entry): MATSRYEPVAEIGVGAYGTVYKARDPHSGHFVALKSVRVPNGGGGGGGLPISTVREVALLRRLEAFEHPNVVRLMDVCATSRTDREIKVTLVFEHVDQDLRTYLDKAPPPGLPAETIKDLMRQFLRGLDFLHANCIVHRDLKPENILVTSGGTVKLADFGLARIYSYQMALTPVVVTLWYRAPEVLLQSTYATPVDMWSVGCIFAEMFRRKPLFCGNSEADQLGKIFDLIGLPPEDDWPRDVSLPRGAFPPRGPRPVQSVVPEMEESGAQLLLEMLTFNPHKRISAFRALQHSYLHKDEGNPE
Chain of CDK4 (P30281 whole entry partner): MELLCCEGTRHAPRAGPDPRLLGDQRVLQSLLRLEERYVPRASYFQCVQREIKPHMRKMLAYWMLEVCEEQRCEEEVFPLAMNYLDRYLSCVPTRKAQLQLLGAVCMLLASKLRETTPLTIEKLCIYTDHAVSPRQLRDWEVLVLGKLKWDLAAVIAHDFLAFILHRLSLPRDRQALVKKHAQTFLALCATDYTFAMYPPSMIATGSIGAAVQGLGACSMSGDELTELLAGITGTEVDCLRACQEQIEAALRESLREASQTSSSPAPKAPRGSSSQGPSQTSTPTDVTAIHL
Description: as §3

[5] = target: CDK2 (Homo sapiens, UniProt P24941); assay: CDK2 kinase IC50, Mobility shift assay; assay type: biochemical
Description: as §3

[6] = target: CDK9 (Homo sapiens, UniProt P50750); assay: CDK9 kinase IC50, Mobility shift assay; assay type: biochemical
Chain of CDK9 (P50750 whole entry): as the sequence (P50750 whole entry) above
Chain of CDK9 (O60563 whole entry partner): as the sequence (O60563 whole entry partner) above
Description: as §3

[7] = target: CDK7 (Homo sapiens, UniProt P50613); assay: CDK7 kinase IC50, Mobility shift assay; assay type: biochemical
Chain of CDK7 (P50613 whole entry): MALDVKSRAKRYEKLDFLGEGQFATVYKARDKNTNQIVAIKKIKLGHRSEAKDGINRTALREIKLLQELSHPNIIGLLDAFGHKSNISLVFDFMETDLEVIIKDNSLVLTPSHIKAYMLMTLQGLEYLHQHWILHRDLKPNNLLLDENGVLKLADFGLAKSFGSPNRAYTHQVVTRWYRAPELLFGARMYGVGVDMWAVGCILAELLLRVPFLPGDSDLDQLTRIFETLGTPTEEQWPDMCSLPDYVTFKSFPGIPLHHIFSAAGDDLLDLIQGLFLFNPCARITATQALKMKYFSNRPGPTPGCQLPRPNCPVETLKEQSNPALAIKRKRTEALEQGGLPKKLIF
Chain of CDK7 (P51946 whole entry partner): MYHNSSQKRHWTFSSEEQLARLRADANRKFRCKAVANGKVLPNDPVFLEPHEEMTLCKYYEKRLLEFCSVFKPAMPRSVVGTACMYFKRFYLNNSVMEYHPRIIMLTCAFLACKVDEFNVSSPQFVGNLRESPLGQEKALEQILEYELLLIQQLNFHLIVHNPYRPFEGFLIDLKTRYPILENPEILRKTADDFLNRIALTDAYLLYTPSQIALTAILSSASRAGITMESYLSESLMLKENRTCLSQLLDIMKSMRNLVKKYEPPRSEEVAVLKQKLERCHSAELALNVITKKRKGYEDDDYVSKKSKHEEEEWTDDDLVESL
Chain of CDK7 (P51948 whole entry partner): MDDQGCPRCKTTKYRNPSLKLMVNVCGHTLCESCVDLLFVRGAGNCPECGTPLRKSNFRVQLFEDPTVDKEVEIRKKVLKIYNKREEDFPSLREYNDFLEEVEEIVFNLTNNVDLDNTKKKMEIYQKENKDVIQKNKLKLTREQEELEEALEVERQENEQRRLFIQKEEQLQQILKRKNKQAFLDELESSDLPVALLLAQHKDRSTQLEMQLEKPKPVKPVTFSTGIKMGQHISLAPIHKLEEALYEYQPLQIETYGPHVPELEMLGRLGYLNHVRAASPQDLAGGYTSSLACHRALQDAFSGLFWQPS
Description: as §3

[8] = target: CDK1 (Homo sapiens, UniProt P06493); assay: CDK1 kinase IC50, Mobility shift assay; assay type: biochemical
Chain of CDK1 (P06493 whole entry): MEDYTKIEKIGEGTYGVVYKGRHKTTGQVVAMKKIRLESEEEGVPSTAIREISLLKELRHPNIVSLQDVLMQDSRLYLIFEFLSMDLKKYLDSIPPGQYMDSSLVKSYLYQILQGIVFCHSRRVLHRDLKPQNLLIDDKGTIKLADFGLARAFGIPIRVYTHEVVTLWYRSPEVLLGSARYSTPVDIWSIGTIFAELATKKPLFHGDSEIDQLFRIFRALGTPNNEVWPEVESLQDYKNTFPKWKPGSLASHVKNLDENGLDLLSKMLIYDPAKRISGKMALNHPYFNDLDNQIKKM
Chain of CDK1 (P14635 whole entry partner): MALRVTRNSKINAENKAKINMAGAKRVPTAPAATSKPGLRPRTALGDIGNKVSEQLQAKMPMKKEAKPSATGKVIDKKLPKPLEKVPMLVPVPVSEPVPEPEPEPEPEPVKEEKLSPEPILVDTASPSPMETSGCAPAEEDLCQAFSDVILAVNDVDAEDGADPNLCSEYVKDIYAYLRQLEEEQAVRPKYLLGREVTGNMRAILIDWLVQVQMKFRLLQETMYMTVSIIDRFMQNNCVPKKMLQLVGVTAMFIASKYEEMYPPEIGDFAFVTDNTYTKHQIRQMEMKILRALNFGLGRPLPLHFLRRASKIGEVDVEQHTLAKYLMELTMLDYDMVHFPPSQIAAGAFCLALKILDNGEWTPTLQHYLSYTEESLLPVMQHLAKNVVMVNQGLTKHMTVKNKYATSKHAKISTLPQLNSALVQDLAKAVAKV
Description: as §3

[9] = tested on: AsPC-1; assay: MTT proliferation assay in AsPC-1 cells; assay type: cell-based; details: Homo sapiens, ASPC1; 72 h drug exposure
Description: as §1
as §2, with “Cells were planted in 96-well plates at a density of 3000–4000 cells per well and incubated at 37 °C in a humidified CO2 incubator for 24 h. Then 3-fold” for “Then 3-fold”

[10] = Oral PK study in rats; assay type: in vivo; details: male, SD, rat, plasma, 30 mg/kg
Description: Synthetic compound was administered as a suspension or solution in the saline with 5% DMSO and 5% Solutol. GCTB was dissolved in saline. All of the experiments were approved by the Institutional Animal Care and Use Committee of Institute of Medicinal Biotechnology. All experiments were carried out under ethics committee–approved protocols and in compliance with the guidelines for the care of laboratory animals of Institute of Medicinal Biotechnology, CAMS.
SD rats were purchased from Beijing Vital River Laboratory Animal Technology Co., Ltd and randomly divided into three groups (n = 3, male). The animals were housed under standard conditions and fastened for 12 h before the treatment. They had free access to water and consumed a standard laboratory diet from 4 h after administration. Blood was taken from the orbital venous plexus at 0, 0.083, 0.25, 0.5, 1, 2, 4, 6, 8, and 24 h after intragastric administration of the test compound (30 mg/kg). The blood samples were collected into heparin anticoagulated EP tubes and centrifuged at 8000 r/min for 5 min at 2−8 °C; the plasma was separated and stored at −70 °C for use. Plasma was centrifuged at 4000 rpm for 10 min at 2−8 °C and stored at −70 °C until analysis. Plasma samples were analysed by LC-MS/MS (AB Sciex API4000 QTRAP) equipped with an ESI ion resource and Analyst 1.5.1 software. The noncompartmental model analysis was used for calculating pharmacokinetic parameters with the WinNolin professional v6.3 program (Pharsight, USA).

[11] = tested on: PANC-1; assay: MTT proliferation assay in PANC-1 cells; assay type: cell-based; details: Homo sapiens, 72 h drug exposure
Description: as §1
as §2, with “Cells were planted in 96-well plates at a density of 3000–4000 cells per well and incubated at 37 °C in a humidified CO2 incubator for 24 h. Then 3-fold” for “Then 3-fold”

[12] = tested on: BxPC-3; assay: MTT proliferation assay in BxPC-3 cells; assay type: cell-based; details: Homo sapiens, 72 h drug exposure
Description: as §1
as §2, with “Cells were planted in 96-well plates at a density of 3000–4000 cells per well and incubated at 37 °C in a humidified CO2 incubator for 24 h. Then 3-fold” for “Then 3-fold”

| SMILES | IC50 ([1]; Homo sapiens, MIA PaCa-2, 72 h) [µM] | inhibition at 0.05 µM [2] [%] | IC50 [4] [nM] | IC50 [5] [nM] | IC50 [6] [nM] | IC50 [7] [nM] | other results |
| --- | --- | --- | --- | --- | --- | --- | --- |
| Cc1ccnc(NS(=O)(=O)c2ccc(Nc3ncc4cc(C(=O)N(C)C)n(C5CCCC5)c4n3)cc2)n1 [2a, 7-cyclopentyl-N,N-dimethyl-2-((4-(N-(4-methylpyrimidin-2-yl)sulfamoyl)phenyl)amino)-7H-pyrrolo[2,3-d]pyrimidine-6-carboxamide] | > 10 | 100 |  |  |  |  | IC50 [1]: 13 ± 0.37 µM |
| CN(C)C(=O)c1cc2cnc(Nc3ccc(S(=O)(=O)Nc4ccccn4)cc3)nc2n1C1CCCC1 [2c] | 18.8 ± 5.54 | 99.1 |  |  |  |  | solubility (in words) [3]: poor solubility |
| CN(C)C(=O)c1cc2cnc(Nc3ccc(S(=O)(=O)Nc4ccc(Cl)cc4)cc3)nc2n1C1CCCC1 [2d, 2-((4-(N-(4-chlorophenyl)sulfamoyl)phenyl)amino)-7-cyclopentyl-N,N-dimethyl-7H-pyrrolo[2,3-d]pyrimidine-6-carboxamide] | 6.23 ± 1.25 | 91.8 | 148 | 7980 | 7.7 | > 10000 |  |
| CN(C)C(=O)c1cc2cnc(Nc3ccc(S(=O)(=O)N(C)C)cc3)nc2n1C1CCCC1 [2e, 7-Cyclopentyl-2-((4-(N,N-dimethylsulfamoyl)phenyl)amino)-N,N-dimethyl-7H-pyrrolo[2,3-d]pyrimidine-6-carboxamide] | 10.5 ± 0.74 | 89.3 |  |  |  |  |  |
| CN(C)C(=O)c1cc2cnc(Nc3ccc(S(C)(=O)=O)cc3)nc2n1C1CCCC1 [2f, 7-Cyclopentyl-N,N-dimethyl-2-((4-(methylsulfonyl)phenyl)amino)-7H-pyrrolo[2,3-d]pyrimidine-6-carboxamide] | 18.9 ± 2.12 | 96.5 |  |  |  |  |  |
| CN(C)C(=O)c1cc2cnc(Nc3ccc(S(=O)(=O)N(C)C)cn3)nc2n1C1CCCC1 [2j] | 69.1 ± 15.5 | 25 |  |  |  |  | CDK9 inhibitory rate (%) @ 50nM [2]: 25.8% |
| CN1CCN(S(=O)(=O)c2ccc(Nc3ncc4cc(C(=O)N(C)C)n(C5CCCC5)c4n3)cc2)CC1 [5c, 7-Cyclopentyl-N,N-dimethyl-2-((4-((4-methylpiperazin-1-yl)sulphonyl)phenyl)amino)-7H-pyrrolo[2,3-d]pyrimidine-6-carboxamide] | 7.8 ± 1.04 | 99.1 | 35 | 227 | 6.3 | > 10000 | IC50 [8]: 550 nM |
| CC1CCN(S(=O)(=O)c2ccc(Nc3ncc4cc(C(=O)N(C)C)n(C5CCCC5)c4n3)cc2)CC1 [5d, 7-Cyclopentyl-N,N-dimethyl-2-((4-((4-methylpiperidin-1-yl)sulphonyl)phenyl)amino)-7H-pyrrolo[2,3-d]pyrimidine-6-carboxamide] | 2.85 ± 0.52 | 80.6 | 170 | 2340 | 20 | > 10000 | IC50 [8]: 906 nM |
| CN(C)C(=O)c1cc2cnc(Nc3ccc(S(=O)(=O)N4CCOCC4)cc3)nc2n1C1CCCC1 [5e, 7-Cyclopentyl-N,N-dimethyl-2-((4-(morpholinosulfonyl)phenyl)amino)-7H-pyrrolo[2,3-d]pyrimidine-6-carboxamide] | 4.35 ± 1.61 | 81.8 | 52 | 236 | 13 | > 10000 | IC50 [8]: 439 nM |
| COc1ccccc1NC(=O)c1cc2cnc(Nc3ccc(S(=O)(=O)Nc4nc(C)cc(C)n4)cc3)nc2n1C1CCCC1 [10a, 7-Cyclopentyl-2-((4-(N-(4,6-dimethylpyrimidin-2-yl)sulfamoyl)phenyl)amino)-N-(2-methoxyphenyl)-7H-pyrrolo[2,3-d]pyrimidine-6-carboxamide] | 40.8 ± 3.26 | -3.1 |  |  |  |  |  |

The next lines start with results.

| IC50 ([1]; Homo sapiens, MIA PaCa-2, 72 h) [µM] | inhibition at 0.05 µM [2] [%] | IC50 [4] [nM] | IC50 [5] [nM] | IC50 [6] [nM] | IC50 [7] [nM] | SMILES | other results |
| --- | --- | --- | --- | --- | --- | --- | --- |
| 80.8 ± 16 | 54 |  |  |  |  | COc1ccccc1NC(=O)c1cc2cnc(Nc3ccc(S(=O)(=O)Nc4ncccn4)cc3)nc2n1C1CCCC1 [10b, 7-Cyclopentyl-N-(2-methoxyphenyl)-2-((4-(N-(pyrimidin-2-yl)sulfamoyl)phenyl)amino)-7H-pyrrolo[2,3-d]pyrimidine-6-carboxamide] | CDK9 inhibitory rate (%) @ 50nM [2]: 54.4% |
| 16.5 ± 7 | 16.9 |  |  |  |  | CN(C)C(=O)c1cc2cnc(Nc3ccc(N4CCNCC4)cn3)nc2n1C1CCCC1 [Ribociclib, reference compound] |  |
| > 10 | 98.7 |  |  |  |  | CN(C)C(=O)c1cc2cnc(Nc3ccc(S(=O)(=O)Nc4ncccn4)cc3)nc2n1C1CCCC1 [compound 2b, 7-Cyclopentyl-N,N-dimethyl-2-((4-(N-(pyrimidin-2-yl)sulfamoyl)phenyl)amino)-7H-pyrrolo[2,3-d]pyrimidine-6-carboxamide] | IC50 [1]: 14.3 ± 0.21 µM; solubility (in words) [3]: poor solubility |
| 45.1 ± 16.6 | 93.2 |  |  |  |  | CN(C)C(=O)c1cc2cnc(Nc3ccccc3)nc2n1C1CCCC1 [compound 2h] |  |
| > 100 | 27 |  |  |  |  | CN(C)C(=O)c1cc2cnc(Nc3ccc(S(N)(=O)=O)cn3)nc2n1C1CCCC1 [compound 2i, 7-Cyclopentyl-N,N-dimethyl-2-((5-sulfamoylpyridin-2-yl)amino)-7H-pyrrolo[2,3-d]pyrimidine-6-carboxamide] | CDK9 inhibitory rate (%) @ 50nM [2]: 27.4% |
| 0.94 ± 0.25 | 98.2 | 20 | 147 | 3.2 | 4970 | CN(C)C(=O)c1cc2cnc(Nc3ccc(S(=O)(=O)N4CCNCC4)cc3)nc2n1C1CCCC1.O=C(O)C(F)(F)F [compound 5b, 7-Cyclopentyl-N,N-dimethyl-2-((4-(piperazin-1-ylsulfonyl)phenyl)amino)-7H-pyrrolo[2,3-d]pyrimidine-6-carboxamide trifluoroacetate] | IC50 [9]: 1.48 ± 0.09 µM; IC50 [8]: 333 nM; Cmax ([10]; single oral administration, read-out: maximum plasma drug concentration (Cmax)): 1080 ng/mL; AUC ([10]; single oral administration, read-out: systematic exposure (AUC0‑t)): 4430 ng·h/mL; AUC(0-inf) ([10]; oral, n = 3): 4780 ± 2160 ng·h/mL; AUC(0-t) ([10]; oral, n = 3): 4430 ± 1620 ng·h/mL; MRT ([10]; oral, n = 3): 3.62 ± 0.83 h; Tmax ([10]; oral, n = 3): 1.17 h; half-life ([10]; oral, n = 3): 132 ± 54 min; Cmax ([10]; oral, n = 3, read-out: Cmax): 2000 nM; IC50 [11]: 5.81 ± 1.38 µM; IC50 [12]: 0.249 ± 0.099 µM |
